# From patent publication US12582647B2, “Systems and methods for treating an opioid-induced adverse pharmacodynamic response” (Purdue Pharma L.P., priority 2012, dated 2026)
# Assays:
# [1] = test system: acute thermal pain in the rat; test: Rat tail flick assay (response latency, % MPE)
# Protocol: Morphine sulphate (1-10 mg/kg) was dissolved in 0.9% normal saline solution (NSS)(vehicle) and administered SC 1 hour prior to testing against vehicle. Data were analyzed by a two-way ANOVA using a Bonferroni post-hoc test, *P<0.05, ***P<0.001.
# Morphine sulphate (1-10 mg/kg) was dissolved in 0.9% normal saline solution (NSS)(vehicle) and administered SC 1 hour prior to testing against vehicle. % MPE=Percent of Maximum Possible Effect. % MPE=(test latency-baseline)/(cutoff(20 s)-baseline)*100. Data were analyzed by a two-way ANOVA using a Bonferroni post-hoc test, *P<0.05, **P<0.01, ***P<0.001.
# Morphine sulphate (10 mg/kg) was dissolved in 0.9% NSS (vehicle). The formulations were administered SC 1 hour prior to testing against vehicle. Data were analyzed by a two-way ANOVA using a Bonferroni multiple comparisons test, *P<0.05, ***P<0.001.
# Morphine sulphate (10 mg/kg) was dissolved in 0.9% NSS (vehicle). The formulations were administered SC 1 hour prior to testing against vehicle. % MPE=Percent Maximum Possible Effect. % MPE=(test latency-baseline)/(cutoff(20 s)-baseline)*100. Data were analyzed by a two-way ANOVA using a Bonferroni multiple comparisons test, ***P<0.001.
# The positive control, morphine sulfate in 0.9% NS was administered SC 1 hour prior to testing. Rats were assessed the day prior (BL) and then 1, 3 and 5 hours post-dosing. Tail Flick was set to 40 intensity and cutoff 20 seconds. Data were analyzed by a two-way ANOVA using a Bonferroni Multiple Comparisons Test, where *P<0.05,***P<0.001 and ****P<0.0001. Data are represented as the means+S.E.M of two combined studies.
# Oxycodone hydrochloride (0.3-5 mg/kg) was dissolved in 0.9% normal saline solution (NSS)(vehicle) and administered SC 1 hour prior to testing against vehicle. Data were analyzed by a two-way ANOVA using a Bonferroni multiple comparisons test, ****P<0.001.
# Oxycodone hydrochloride (0.3-5 mg/kg) was dissolved in 0.9% normal saline solution (NSS)(vehicle) and administered SC 1 hour prior to testing against vehicle. % MPE=Percent Maximum Possible Effect. % MPE=(test latency-baseline)/(cutoff(20 s)-baseline)*100. Data were analyzed by a two-way ANOVA using a Bonferroni multiple comparisons test, ****P<0.001.
# Oxycodone HCl and vehicle were administered SC 1 hour prior to testing. Rats were assessed one day prior (BL) and then 1, 3 and 5 hours post-oxycodone administration. The tail flick was set to an intensity of 40 and the cutoff was 20 seconds. Oxycodone was dissolved in 0.9% (vehicle). […] Data were analyzed by a two-way ANOVA followed by the Bonferroni Multiple Comparisons Test where, *P<0.05 and ****P<0.001.
# Oxycodone HCl was administered PO 1 hour prior to testing, while morphine sulfate, the positive control, was administered SC 1 Hour prior to testing. Behavior was assessed the day prior (BL) to dosing, and then 1, 3, 5 and 24 hours post-compound administration. The tail flick was set to an intensity of 40 and 20 seconds was used as the cutoff. Oxycodone was dissolved in water (vehicle), while morphine was dissolved in 0.9% NS. Data were analyzed by a two-way ANOVA using a Bonferroni Multiple Comparisons Test, where *P<0.05, **P<0.01, ***P<0.001 and ****P<0.0001.
# Rats were assessed for tail flick latency the day prior to dosing, then 1.5, 3 and 5 hours post-morphine administration. Data were analyzed by a two-way ANOVA using the Bonferroni Multiple Comparisons Test, where ****P<0.0001 compared to vehicle+vehicle. Data are represented as the means+S.E.M.
# Rats were assessed for thermal latency 1.5, 3 and 5 hours post-morphine administration. % MPE=Percent Maximum Possible Effect. % MPE=(test latency-baseline)/(cutoff(20 s)-baseline)*100. Data were analyzed by a two-way ANOVA using a Bonferroni multiple comparisons test for post-hoc analysis where *P<0.05 and ****P<0.001. Data are represented as the means+SEM.
# Rats were tested 1 hour after oxycodone injection.
# rat GI transit = test: Charcoal meal GI transit in the rat, single agent; conditions: for GI transit: % of the small intestine travelled by a charcoal meal: vs vehicle
# Protocol: Rats were dosed with Oxycodone HCl/Oxy or vehicle (water) PO once daily for 5 days (chronic). Additional groups were dosed only once on day 5 (acute). […] One hour after charcoal, all rats were euthanized by CO2 and the GI tract was removed from the stomach to the cecum. The length of the small intestine and the distance (cm) to the leading edge of charcoal was recorded. Data were analyzed using a one-way ANOVA with Bonferonni's Multiple Comparison Test where * P<0.05, ****P<0.0001 vs. vehicle (chronic), ###vs. oxycodone (acute). Data are represented as the means+S.E.M.
# [2] = test system: acute thermal pain in the rat; test: Rat hot plate assay (response latency, % MPE)
# Protocol: Morphine sulphate (1-10 mg/kg) was dissolved in 0.9% normal saline solution (NSS)(vehicle) and administered SC 1 hour prior to testing against vehicle. Data were analyzed by a two-way ANOVA using a Bonferroni Multiple Comparison Test,***P<0.001.
# Morphine sulphate (1-10 mg/kg) was dissolved in 0.9% normal saline solution (NSS)(vehicle) and administered SC 1 hour prior to testing against vehicle. % MPE=Percent Maximum Possible Effect. % MPE=(test latency-baseline)/(cutoff-baseline). Data was analyzed using a Bonferroni Multiple Comparison Test,***P<0.001.
# Morphine sulphate (10 mg/kg), the positive control, was dissolved in 0.9% NSS (vehicle). The formulations were administered SC 1 hour prior to testing against vehicle. Data were analyzed by a two-way ANOVA using a Bonferroni multiple comparisons test, where *P<0.05 and ***P <0.001. Data are represented as the means+S.E.M.
# Morphine sulphate (10 mg/kg) was dissolved in 0.9% NSS (vehicle). The formulations were administered SC 1 hour prior to testing against vehicle. % MPE=Percent Maximum Possible Effect. % MPE=(test latency-baseline)/(cutoff (30 s)-baseline). Data were analyzed by a two-way ANOVA using Bonferroni Multiple Comparisons test for post-hoc analysis, where *P<0.05 and ***P<0.001. Data are represented as the means+SEM.
# The positive control, morphine sulfate in 0.9% NS, was administered SC 1 hour prior to testing. Rats were assessed one day prior (BL) and then 1, 3 and 5 hours post-dosing. Hot Plate was set to 52° C. and cutoff was 30 seconds. Data were analyzed by a two-way ANOVA using a Bonferroni Multiple Comparisons Test, where *P<0.05, ***P<0.001 and ****P<0.0001 versus vehicle. Data are represented as the means+S.E.M from two combined studies.
# Oxycodone hydrochloride (0.3-5 mg/kg) was dissolved in 0.9% normal saline solution (NSS)(vehicle) and administered SC 1 hour prior to testing against vehicle. Hot plate was set to 52° C. and cutoff was 30 seconds. Data were analyzed by a two-way ANOVA using a Bonferroni multiple comparisons test, where ****P<0.0001. Data are represented as the means+S.E.M.
# Compound was administered SC 1 hour prior to testing. Oxycodone hydrochloride (0.3-5 mg/kg) was dissolved in 0.9% normal saline solution (NSS)(vehicle) and administered SC 1 hour prior to testing against vehicle. Hot plate was set to 52° C. and cutoff was 30 seconds. % MPE=. Percent Maximum Possible Effect. % MPE=(test latency-baseline)/(cutoff (30 s)-baseline). Data were analyzed by a two-way ANOVA using Bonferroni Multiple Comparisons test for post-hoc analysis, ****P<0.000. Data are represented as the means+SEM.
# Oxycodone HCl was administered SC 1 hour prior to testing. Thermal latency was assessed the day prior (BL) and then 1, 3 and 5 hours post-oxycodone dosing. The hotplate was set to 52° C. and the cutoff was 30 seconds. Oxycodone was dissolved in 0.9% NS (vehicle). […] Data were analyzed by a two-way ANOVA using the Bonferroni Multiple Comparisons test for post-hoc analysis where, ***P<0.001. Data are represented as the means+SEM.
# Oxycodone HCl was administered PO 1 hour prior to testing, while morphine sulfate, the positive control, was administered SC 1 hour prior to testing. Behavior was assessed the day prior (BL) and then 1, 3, 5 and 24 hours post-compound administration. The hot plate was set to 52° C. and the cutoff was 30 seconds. Oxycodone was dissolved in water (vehicle), while morphine sulfate was dissolved in 0.9% NS. Data were analyzed by a two-way ANOVA using a Bonferroni Multiple Comparisons Test, where ****P<0.0001.
# Rats were assessed for thermal latency the day prior to dosing, then 1.5, 3 and 5 hours post-morphine administration. Data were analyzed by a two-way ANOVA using the Bonferroni Multiple Comparisons Test, where ****P<0.0001 compared to vehicle+vehicle.
# rat gastric emptying = test: Stomach weight after charcoal meal (gastric emptying); format: in vivo, male Sprague-Dawley rats; conditions: morphine sulfate 1-10 mg/kg SC 0.5 h before charcoal meal, vs vehicle; FIG. 1B
# Protocol: Morphine sulfate (1-10 mg/kg) or 0.9% normal saline (vehicle) was administered SC to the test subjects. 0.5 hour later, a charcoal meal (1 ml/100 grams) was administered PO to the test subjects. One hour after the charcoal meal, the test subjects were euthanized by CO2 and the stomachs were removed and weighed. Data were analyzed using a one-way ANOVA followed by the Dunnett's Multiple Comparisons test where *P<0.05, **P<0.01 and ***P<0.001. […] This effect was dose dependent with a greater magnitude of effect observed with increasing dose.
Compound,"tail flick latency to nocifensive response ([1]; morphine sulphate 1-10 mg/kg SC 1 h prior to testing, FIG. 3A)","tail flick % of the maximal possible effect (% MPE) ([1]; morphine sulphate 1-10 mg/kg SC 1 h prior to testing, FIG. 3B)","GI transit: % of the small intestine travelled by a charcoal meal (rat GI transit; morphine sulfate 1-10 mg/kg SC 0.5 h before charcoal meal, FIG. 1A)","hot plate latency to nocifensive response ([2]; morphine sulphate 1-10 mg/kg SC 1 h prior to testing, FIG. 2A)","hot plate % of the maximal possible effect (% MPE) ([2]; morphine sulphate 1-10 mg/kg SC 1 h prior to testing, FIG. 2B)",stomach weight (gastric emptying) (rat gastric emptying),"rats found dead ([1]; oxycodone HCl 10 mg/kg SC dosing group, at the 3 hr time point)","tail flick MED (mitigates acute pain) ([1]; oxycodone HCl PO, FIG. 9D) [mg/kg]","tail flick MED (mitigates acute pain) ([1]; oxycodone HCl SC, FIG. 9C) [mg/kg]","tail flick latency to nocifensive response ([1]; oxycodone hydrochloride 0.3-5 mg/kg SC 1 h prior to testing, FIG. 9A)","tail flick % of the maximal possible effect (% MPE) ([1]; oxycodone hydrochloride 0.3-5 mg/kg SC 1 h prior to testing, FIG. 9B)","tolerance to inhibition of GI transit (rat GI transit; oxycodone HCl PO once daily for 5 days (chronic) vs single dose on day 5 (acute), FIG. 7D)","GI transit: % of the small intestine travelled by a charcoal meal (rat GI transit; oxycodone hydrochloride 0.3-5 mg/kg SC 1 h before charcoal meal, FIG. 7A)","rats found dead ([2]; oxycodone HCl 10 mg/kg SC, at the 3 hr time point)","hot plate MED (mitigates acute pain) ([2]; oxycodone HCl PO, FIG. 8D) [mg/kg]","hot plate MED (mitigates acute pain) ([2]; oxycodone HCl SC, FIG. 8C) [mg/kg]","hot plate latency to nocifensive response ([2]; oxycodone hydrochloride 0.3-5 mg/kg SC 1 h prior to testing, FIG. 8A)","hot plate % of the maximal possible effect (% MPE) ([2]; oxycodone hydrochloride 0.3-5 mg/kg SC 1 h prior to testing, FIG. 8B)"
"CN1CC[C@]23c4c5ccc(O)c4O[C@H]2[C@@H](O)C=C[C@H]3[C@H]1C5.O=S(=O)(O)O [morphine, morphine sulphate]",provides analgesia,provides analgesia,decreases gastrointestinal transit,provides analgesia,provides analgesia,increased stomach weight due to delayed gastric emptying,,,,,,,,,,,,
"COc1ccc2c3c1O[C@H]1C(=O)CC[C@@]4(O)[C@@H](C2)N(C)CC[C@]314.Cl [oxycodone, oxycodone hydrochloride]",,,,,,,4 out of 10,10,3,provides analgesia,provides analgesia,produces some tolerances to its acute effect on the inhibition of GI transit,decreases gastrointestinal transit,4 out of 10,10,3,provides analgesia,provides analgesia
